Test results published in patent US20240349723A1 (priority 2023, published 2024).
Entries after “also recorded” stand apart in the source; their conditions may differ. Like-named read-outs stand apart in the source and are kept apart here. Where a SMILES comes first, the peptide text is derived from it. Where no end group is shown, it is not given here.

Key:
CLas = format: in vivo, Candidatus Liberibacter asiaticus
Diaphorina citri = format: in vivo; settings: for live adult psyllids collected from the ten leaves: after 21 day assay, 10 nymphs per excised leaf, peptides 1 mg/mL, PMB 0.5 mg/mL; for Nymph mortality of D. citri: dead psyllids counted daily, 21 days, FIG. 9
[1] = test system: Liberibacter crescens strain BT-1
[2] = test system: 'Candidatus Liberibacter asiaticus' (CLas); format: in vivo; settings: excised CLas-infected citrus leaves, 1 mg/ml, seven-day incubation, FIG. 5
[3] = adults developed on treated CLas-infected leaves, 21 days, FIG. 7

With “VKCVLPRIARCIKYRCQCRN (listed as Medicago truncatula) [SEQ ID NO: 10]” the “development of psyllid with more than 100 CLas cells per insect (high titer)” value (shortened to “development of psyllid … per insect (high titer)”) (CLas; [3]) was “completely blocking the development of psyllid with more than 100 CLas cells; also recorded: No highly infected adults develop”, the “number of infective Diaphorina citri adults that develop on treated leaves” value (from here on “number”) (CLas; leaf delivery, FIG. 7) was “reduces the number of infective Diaphorina citri adults” and the “live adult psyllids collected from the ten leaves” value (“live adult psyllids collected” for short) (Diaphorina citri) was 74.

In the case of “RGCKRDKDCPQFRGVNIRCR (listed as Medicago truncatula) [SEQ ID NO: 9]”, the “development of psyllid … per insect (high titer)” value (CLas; in vivo) is reported as “completely blocking the development of psyllid with more than 100 CLas cells; also recorded: No highly infected adults develop”, the “number” value (CLas; in vivo) is reported as “reduces the number of infective Diaphorina citri adults” and the “live adult psyllids collected” value (Diaphorina citri) is reported as 80.

For “YSSCATKEECKCPDNKRPAC (listed as Medicago truncatula) [SEQ ID NO: 8]”, the “adult insects with more than 100 CLas cell equivalents per insect” value (CLas; count out of adults collected, 21 days, FIG. 7) was 2/84, the “number” value (CLas; leaf delivery, FIG. 7) was “reduces the number of infective Diaphorina citri adults” and the “live adult psyllids collected” value (Diaphorina citri) was 84.

For `CC[C@H](C)[C@H](NC(=O)[C@H](CC(N)=O)NC(=O)[C@@H](NC(=O)CNC(=O)[C@H](CCCNC(=N)N)NC(=O)[C@H](Cc1ccccc1)NC(=O)[C@H](CCC(N)=O)NC(=O)[C@@H]1CCCN1C(=O)[C@H](CS)NC(=O)[C@H](CC(=O)O)NC(=O)[C@H](CCCCN)NC(=O)[C@H](CC(=O)O)NC(=O)[C@H](CCCNC(=N)N)NC(=O)[C@H](CCCCN)NC(=O)[C@H](CS)NC(=O)CNC(=O)[C@@H](N)CCCNC(=N)N)C(C)C)C(=O)N[C@@H](CCCNC(=N)N)C(=O)N[C@@H](CS)C(=O)N[C@@H](CCCNC(=N)N)C(=O)O` [compound 9] (H-RGCKRDKDCPQFRGVNIRCR-OH; N-terminus and C-terminus assumed), the “Percent growth rate inhibition L. crescens” value ([1]; 0.1 mg/ml) was 65.4%.

“LYCNVGSHMECVKHQCKCIK (listed as Medicago truncatula) [SEQ ID NO: 11]” was tested, and the “number” value (CLas; leaf delivery, FIG. 7) was “reduces the number of infective Diaphorina citri adults” and the “Nymph mortality of D. citri” value (Diaphorina citri) was “Nymph mortality observed”.

In the case of LRFRSVFHIFASVLAVAKKH [compound 6], the “Percent growth rate inhibition L. crescens” value ([1]; L. crescens strain BT-1, BM7 medium, final peptide 1 or 0.1 mg/ml, O.D. 600 nm over seven days) is reported as 66.6%.

For “polymyxin B sulfate [PMB, reference compound]”, the “development of psyllid … per insect (high titer)” value (CLas; [3]) was “prevented the development of high titer psyllid”, the “CLas titer in the excised leaves” value (CLas; excised leaf acquisition assay, FIG. 6A, differences not statistically significant) was “reduced CLas titer in the excised leaves” and the “live adult psyllids collected” value (Diaphorina citri) was 87. The “performance in the bacterial growth assays” value ([1]; positive growth inhibition control, 0.5 mg/ml) was “excellent performance as an antimicrobial peptide” and the “CLas 16S transcript-to-gene ratio (CLas rRNA : CLas rDNA), CLas activity” value [2] was “greater declines in detectable CLas activity”.

In the case of “QNLCVGSPLPLQCLKFICRC (listed as Medicago truncatula) [SEQ ID NO: 14]”, the “number” value (CLas; leaf delivery, FIG. 7) is reported as “reduces the number of infective Diaphorina citri adults” and the “Nymph mortality of D. citri” value (Diaphorina citri) is reported as “Nymph mortality observed”.
